Data from ChEMBL document CHEMBL1201862, “PubChem BioAssay data set” (2004).
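Grown in 96-well plates, cells were treated for 48 hours with each compound at five concentrations. Insufficient inhibition: endpoint recorded as highest concentration tested. The concentration for 50% growth inhibition is given as GI50.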 Calls of active or inactive are those of the source. Cut-off read from the data, not from the text of the source: active = GI50 up to about 1.1 µM and inactive = higher.

What was measured:
Assay in all cases: NCI anticancer screen, dose series, 48 h
SNB-75 = test system: SNB-75
HT-29 = test system: HT-29
SK-MEL-28 = test system: SK-MEL-28
KM12 = test system: KM12
DLD-1 = test system: DLD-1
ACHN = test system: ACHN
UACC-257 = test system: UACC-257
NCI-H23 = test system: NCI-H23
SN12C = test system: SN12C
TK-10 = test system: TK-10
SK-OV-3 = test system: SK-OV-3
786-0 = test system: 786-0
HL-60 = test system: HL-60
SW-620 = test system: SW-620
SF-539 = test system: SF-539
UACC-62 = test system: UACC-62
MDA-MB-231 = test system: MDA-MB-231
BT-549 = test system: BT-549
DU-145 = test system: DU-145
Hs-578T = test system: Hs-578T

Measured: GI50

Nc1ncnc2c1ncn2[C@]1(CO)C=C(CO)C(O)C1O (stereo not given in full)
inactive: SNB-75 > 100 µM | HT-29 > 100 µM | SK-MEL-28 > 100 µM | KM12 > 100 µM | DLD-1 > 100 µM | ACHN > 100 µM | UACC-257 > 100 µM | NCI-H23 > 100 µM | SN12C > 100 µM | TK-10 > 100 µM | SK-OV-3 > 100 µM | 786-0 > 100 µM | HL-60 > 100 µM | SW-620 > 100 µM

CC(C)=CC1CC(=O)C1(C)Sc1ccccc1 (stereo not given)
inactive: SNB-75 65.2 µM | HT-29 27.4 µM | SK-MEL-28 > 100 µM | KM12 > 100 µM | DLD-1 52.8 µM | ACHN > 100 µM | UACC-257 45.5 µM | SF-539 > 100 µM | NCI-H23 56.4 µM | SN12C 71.8 µM | TK-10 > 100 µM | SK-OV-3 > 100 µM | UACC-62 > 100 µM | 786-0 50.7 µM | HL-60 22.8 µM

COc1cc(C(C)O)c[n+](CCC2CNc3ccccc32)c1 (stereo not given)
inactive: SNB-75 > 100 µM | HT-29 71.6 µM | KM12 > 100 µM | DLD-1 > 100 µM | ACHN > 100 µM | UACC-257 > 100 µM | SF-539 > 100 µM | NCI-H23 > 100 µM | SN12C > 100 µM | UACC-62 > 100 µM | 786-0 > 100 µM | HL-60 > 100 µM | SW-620 > 100 µM

CC(C)COC1Sc2ccccc2S1
inactive: SNB-75 1.32 µM | HT-29 13.1 µM | SK-MEL-28 17.4 µM | DLD-1 16.4 µM | ACHN 15.7 µM | NCI-H23 22.3 µM | SN12C 18.8 µM | TK-10 21.5 µM | SK-OV-3 28.1 µM | UACC-62 4.91 µM | 786-0 22.3 µM | SW-620 29.7 µM

COc1ccc2c(-c3cc4ccccc4o3)cc(=O)oc2c1
inactive: SNB-75 8.17 µM | HT-29 > 78.2 µM | SK-MEL-28 53.7 µM | MDA-MB-231 47.8 µM | KM12 98.2 µM | DLD-1 > 100 µM | ACHN 39.4 µM | BT-549 34.1 µM | UACC-257 54.8 µM | DU-145 > 74.8 µM | SF-539 16.7 µM | NCI-H23 52.1 µM | SN12C 68.9 µM | TK-10 21.7 µM | SK-OV-3 23.1 µM | UACC-62 67.5 µM | 786-0 25.8 µM | HL-60 > 100 µM | SW-620 > 100 µM | Hs-578T 11.4 µM

O=C(N/C(=C\c1ccc(/C=C(\NC(=O)c2ccccc2)c2nc3c(O)nc(S)nc3[nH]2)cc1)c1nc2c(O)nc(S)nc2[nH]1)c1ccccc1
inactive: SNB-75 26.4 µM | HT-29 75 µM | SK-MEL-28 29.3 µM | KM12 > 100 µM | DLD-1 64.9 µM | ACHN 95.7 µM | UACC-257 > 100 µM | SF-539 61.9 µM | NCI-H23 55.7 µM | SN12C > 100 µM | TK-10 > 100 µM | SK-OV-3 > 100 µM | UACC-62 34.3 µM | 786-0 > 100 µM | SW-620 46.6 µM

O/N=C1/CCC/C1=C\c1ccccc1
inactive: SNB-75 18.5 µM | HT-29 > 10 µM | SK-MEL-28 > 100 µM | KM12 > 100 µM | DLD-1 > 100 µM | ACHN > 100 µM | UACC-257 > 100 µM | SF-539 > 100 µM | NCI-H23 > 100 µM | SN12C > 100 µM | TK-10 > 100 µM | SK-OV-3 > 100 µM | UACC-62 > 100 µM | 786-0 > 100 µM | HL-60 28.6 µM | SW-620 > 100 µM

C=C(Br)C(C)(Cl)CCC(Br)C(C)(C)Br (stereo not given)
inactive: SNB-75 46 µM | HT-29 47.2 µM | KM12 99.1 µM | DLD-1 91.8 µM | ACHN > 100 µM | UACC-257 78.7 µM | SF-539 > 100 µM | NCI-H23 72.8 µM | SN12C > 100 µM | TK-10 > 100 µM | SK-OV-3 > 100 µM | UACC-62 47.6 µM | 786-0 > 100 µM | HL-60 19.9 µM | SW-620 79.8 µM

Nc1nc2c3c(ncn3CC(O)CO2)n1 (stereo not given)
inactive: SNB-75 10.8 µM | HT-29 7.6 µM | SK-MEL-28 > 100 µM | KM12 > 100 µM | DLD-1 > 100 µM | ACHN > 100 µM | UACC-257 > 100 µM | SF-539 > 100 µM | NCI-H23 > 100 µM | SN12C > 100 µM | TK-10 > 100 µM | SK-OV-3 > 100 µM | UACC-62 > 100 µM | 786-0 > 100 µM | HL-60 > 100 µM | SW-620 > 100 µM

Cc1ccc(NC(=O)CCc2nc(N)nc(N)c2-c2ccccc2)cc1C
inactive: SNB-75 58.7 µM | HT-29 > 100 µM | SK-MEL-28 > 100 µM | KM12 > 100 µM | DLD-1 > 100 µM | ACHN > 100 µM | UACC-257 > 100 µM | SF-539 > 100 µM | NCI-H23 > 100 µM | SN12C > 100 µM | TK-10 > 100 µM | SK-OV-3 > 100 µM | UACC-62 > 100 µM | 786-0 > 100 µM | HL-60 > 100 µM | SW-620 > 100 µM

CN(C)C(=O)c1ccc([N+](=O)[O-])cc1
inactive: SNB-75 > 100 µM | HT-29 > 100 µM | SK-MEL-28 > 100 µM | KM12 > 100 µM | DLD-1 > 100 µM | ACHN > 100 µM | UACC-257 > 100 µM | SF-539 > 100 µM | NCI-H23 > 100 µM | SN12C > 100 µM | TK-10 > 100 µM | SK-OV-3 > 100 µM | UACC-62 > 100 µM | 786-0 > 100 µM | HL-60 > 100 µM | SW-620 > 100 µM

N#C/C(=C\c1ccc(O)c(O)c1)c1c(C#N)c(N)nn1-c1ccccc1
inactive: SNB-75 13.3 µM | HT-29 22 µM | SK-MEL-28 20 µM | KM12 15.6 µM | DLD-1 18.5 µM | ACHN 8 µM | UACC-257 15.5 µM | SF-539 6.64 µM | NCI-H23 7.43 µM | SN12C 10.3 µM | TK-10 21.8 µM | SK-OV-3 12.9 µM | UACC-62 3.81 µM | 786-0 7.67 µM | HL-60 7.85 µM | SW-620 12.8 µM

Cc1cc(O)cc2oc(=O)c3c(O)cc(O)cc3c12 [ALTERNARIOL]
inactive: SNB-75 12.7 µM | HT-29 39.3 µM | SK-MEL-28 > 100 µM | KM12 26.8 µM | DLD-1 30.7 µM | ACHN 14.1 µM | UACC-257 > 100 µM | SF-539 17 µM | NCI-H23 20.7 µM | SN12C 50.5 µM | TK-10 44.5 µM | SK-OV-3 18.5 µM | UACC-62 24 µM | 786-0 28.6 µM | HL-60 16.4 µM | SW-620 16.2 µM

Cc1ccc(S(=O)(=O)OCC23CCC(C2)C2CC23)cc1 (stereo not given)
inactive: HT-29 > 100 µM | SK-MEL-28 > 100 µM | DLD-1 > 100 µM | ACHN > 100 µM | UACC-257 52.1 µM | NCI-H23 > 100 µM | SN12C > 100 µM | TK-10 > 100 µM | SK-OV-3 > 100 µM | UACC-62 > 100 µM | 786-0 > 100 µM | HL-60 31.6 µM | SW-620 > 100 µM

CC1(C)OC2CC3COC(=O)C3CC2O1 (stereo not given)
inactive: SNB-75 > 100 µM | HT-29 > 100 µM | SK-MEL-28 > 100 µM | KM12 > 100 µM | DLD-1 > 100 µM | ACHN > 100 µM | UACC-257 > 100 µM | SF-539 > 100 µM | NCI-H23 > 100 µM | SN12C > 100 µM | TK-10 > 100 µM | SK-OV-3 > 100 µM | UACC-62 > 100 µM | 786-0 > 100 µM | HL-60 > 100 µM | SW-620 > 100 µM

O=C(C[n+]1ccccc1)N/N=C(/CCC(=O)N(Cc1ccccc1)Cc1ccccc1)CC(=O)c1ccccc1
inactive: SNB-75 > 100 µM | HT-29 > 100 µM | SK-MEL-28 > 100 µM | KM12 > 100 µM | DLD-1 > 100 µM | ACHN > 100 µM | UACC-257 > 100 µM | SF-539 > 100 µM | NCI-H23 > 100 µM | SN12C > 100 µM | TK-10 > 100 µM | UACC-62 > 100 µM | 786-0 > 100 µM | HL-60 > 100 µM | SW-620 > 100 µM

CC12O[C@H](c3ccccc3)[C@H](c3ccccc3)N1C(=O)C1(C(=O)OCc3ccccc3)CC12 (stereo not given in full)
inactive: SNB-75 > 100 µM | HT-29 76 µM | KM12 91 µM | DLD-1 88.1 µM | ACHN 60.3 µM | UACC-257 59.8 µM | SN12C > 100 µM | SK-OV-3 > 100 µM | UACC-62 > 100 µM | 786-0 > 100 µM | HL-60 32.4 µM | SW-620 > 100 µM

O=C(NC(=S)Nc1ccc([N+](=O)[O-])cc1)c1ccc2c(c1)Sc1ccccc1O2
inactive: SNB-75 13.8 µM | HT-29 > 100 µM | SK-MEL-28 > 100 µM | MDA-MB-231 > 100 µM | KM12 > 100 µM | ACHN 49.9 µM | BT-549 > 100 µM | UACC-257 > 100 µM | DU-145 > 100 µM | SF-539 45.7 µM | NCI-H23 > 100 µM | SN12C > 100 µM | TK-10 44.2 µM | SK-OV-3 77.1 µM | UACC-62 71.3 µM | 786-0 44.8 µM | HL-60 > 100 µM | SW-620 > 100 µM | Hs-578T 32.8 µM
